Data on five compounds can be found in article PMC10820070, “Hydroxylated Tetramethoxyflavone Affects Intestinal Cell Permeability and Inhibits Cytochrome P450 Enzymes” (Molecules, 2024).

“And” between values parts separate entries of the source, which are not always exact repeats. Equal entries are not always repeated. Marks after values point to notes of the source that are not given here.

The nature of series [1]: Transport of TMFs across Caco-2 cell monolayer, apical to basolateral. It counts as in vitro ADME, human. Conditions: human, Caco-2, calculated over four hours, read-out: apparent permeability coefficient (Papp). On the procedure: (§1) Caco-2 cells were cultured in Dulbecco’s modified Eagle’s medium (DMEM; GIBCO, Carlsbad, CA, USA) supplemented with 10% fetal bovine serum (GIBCO), 1% nonessential amino acid solution, and antibiotics (100 U/mL penicillin and 100 µg/mL streptomycin from GIBCO) with a minor modification according to Lu. Cells were grown in an incubator with 5% CO2 and 95% humidity at 37 °C, with medium replaced every 2–3 days. The tests were carried out using cells from passages 25–35. Transwell inserts with a polycarbonate membrane (diameter 1.2 cm, pore size 0.4 μm; Corning Costar Co., Corning, NY, USA) were used in 12-well plates. Caco-2 cells were planted at 5 × 10^5 cells/cm^2 on the membrane inserts, and 0.5 and 1.5 mL of culture media were placed on the apical and basolateral sides, respectively. The medium was changed three times a week, and the Caco-2 cells used in the studies had been cultured in the Transwells for approximately 21 days. The integrity of the cell layer was assessed using Millicell ERS equipment by measuring transepithelial electrical resistance (TEER) values (Millipore Co., Bedford, MA, USA). Monolayers with TEER values greater than 400 Ωcm^2 were used for transport and absorption studies.
(§2) Transport experiments were conducted using modified methodologies from the literature. Before adding the test solution, the apical and basolateral sides of the Coco-2 cell monolayer grown in Transwell inserts were washed three times with Hank’s balanced salt solution (GIBCO). The apical-to-basolateral permeability was measured by adding 0.5 mL of the test solution containing 300 μg/mL TMFs and 1.5 mL of HBSS to the apical and basolateral sides, respectively, and incubating at 37 °C for 0.5, 1, 2, and 4 h. The concentration of TMF utilized was determined using the Caco-2 cell viability test findings. TMF was dissolved and diluted with HBSS before the experiment began. The apical and basolateral solutions were collected after incubation for 0.5, 1, 2, and 4 h, and the concentration of TMF was determined using LC-MS. The apparent permeability coefficient (Papp in cm/s) was calculated over a four-hour duration using Equation (1):Papp = (V/AC0) × (dC/dt)(1) where V is the volume of solution on the basolateral side (1.5 mL); A is the membrane surface area (1.12 cm^2); C0 is the initial concentration on the apical side; and dC/dt is the change in concentration in the basolateral side over time.
(§3) The transport efficiency (%) was calculated using Equation (2):Transport efficiency (%) = (Cbs)/(Cas) × 100 (%)(2) where Cbs is the concentration of TMF transported in the basolateral side; and Cas is the initial concentration of TMF added to the apical side.

The next series concerns Caco-2 cell monolayer. The description is as above. It counts as in vitro ADME, human. As to conditions: 300 μg/mL TMF loaded on apical side, mean ± S.D. On the procedure: as §1, §2, §3
In a further series the target is T1, CYP2D6 (Homo sapiens, UniProt P10635).
T1 construct: purchased Invitrogen Corp. (Madison, WI, USA); host or cells: insect cells (baculovirus)
The experiment in a line: CYP inhibition assay (P450 Baculosomes/Vivid substrate, fluorescence), 10-dose IC50. It counts as biochemical. Conditions: mean ± S.D.; ND: Not Detected.

A further series concerns the target T2, CYP2C19 (Homo sapiens, UniProt P33261).
T2 construct: purchased Invitrogen Corp. (Madison, WI, USA); host or cells: insect cells (baculovirus)
The description is as above. Type of series: biochemical. Conditions: mean ± S.D.; ND: Not Detected.

A further series addresses T3, CYP1A2 (Homo sapiens, UniProt P05177).
T3 sequence (P05177 2-516 limits assumed): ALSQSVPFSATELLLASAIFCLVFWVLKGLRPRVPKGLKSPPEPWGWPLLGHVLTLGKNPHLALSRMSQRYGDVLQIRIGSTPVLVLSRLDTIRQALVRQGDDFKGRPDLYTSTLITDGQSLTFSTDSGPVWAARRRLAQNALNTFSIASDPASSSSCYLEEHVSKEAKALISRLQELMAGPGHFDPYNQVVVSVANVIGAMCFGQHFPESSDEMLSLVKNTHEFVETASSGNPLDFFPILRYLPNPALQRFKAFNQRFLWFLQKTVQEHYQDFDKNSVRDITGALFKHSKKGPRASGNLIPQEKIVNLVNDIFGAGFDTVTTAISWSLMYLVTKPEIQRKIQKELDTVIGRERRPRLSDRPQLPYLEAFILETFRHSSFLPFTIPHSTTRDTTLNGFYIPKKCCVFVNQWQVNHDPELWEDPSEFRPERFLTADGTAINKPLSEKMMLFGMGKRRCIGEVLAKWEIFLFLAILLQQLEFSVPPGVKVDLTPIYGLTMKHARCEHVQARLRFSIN
The description is as above.

The target of the next series is CYP2C9 (Homo sapiens, UniProt P11712). Described as above.
In a further series the target is CYP3A4 (Homo sapiens, UniProt P08684). The description is as above.
Series [2] concerns cytochrome P450s (CYP) 1A2. Set-up: method as in PMID 22056445. Conditions: in vitro; read-out: IC50 against CYP1A2; cited from earlier work.
Series [3] concerns cytochrome P450s (CYP) 3A4. Further details: method as in PMID 22056445. Conditions: in vitro; read-out: IC50 against CYP3A4; cited from earlier work.
The subject of series [4] is CYP1A2, CYP2C9, CYP2C19 (range over the three). The series is described as follows: CYP inhibition assay, summary over the enzyme panel. Type of series: biochemical. Conditions: human, probe Vivid substrates; range over CYP1A2, 2C9 and 2C19; dose-dependent.

In general, Papp refers to the rate of passage across a membrane or cell layer, normalised by area and donor concentration. Broadly, the IC50 is the concentration needed to halve the response being measured.

T2 sequence (P33261 whole entry): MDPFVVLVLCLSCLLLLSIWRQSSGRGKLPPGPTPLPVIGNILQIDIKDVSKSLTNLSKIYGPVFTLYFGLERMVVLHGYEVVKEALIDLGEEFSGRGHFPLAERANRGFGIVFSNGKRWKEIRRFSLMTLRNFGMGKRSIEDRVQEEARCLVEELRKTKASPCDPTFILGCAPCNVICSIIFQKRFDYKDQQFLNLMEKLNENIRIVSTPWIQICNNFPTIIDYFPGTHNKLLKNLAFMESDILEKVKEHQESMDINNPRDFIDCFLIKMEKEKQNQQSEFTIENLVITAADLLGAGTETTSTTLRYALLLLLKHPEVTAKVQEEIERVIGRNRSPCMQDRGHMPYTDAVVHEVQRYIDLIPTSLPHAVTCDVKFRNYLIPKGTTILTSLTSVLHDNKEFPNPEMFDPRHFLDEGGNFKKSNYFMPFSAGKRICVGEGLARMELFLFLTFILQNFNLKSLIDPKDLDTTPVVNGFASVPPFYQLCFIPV
Chain of CYP3A4 (P08684 2-503 limits assumed): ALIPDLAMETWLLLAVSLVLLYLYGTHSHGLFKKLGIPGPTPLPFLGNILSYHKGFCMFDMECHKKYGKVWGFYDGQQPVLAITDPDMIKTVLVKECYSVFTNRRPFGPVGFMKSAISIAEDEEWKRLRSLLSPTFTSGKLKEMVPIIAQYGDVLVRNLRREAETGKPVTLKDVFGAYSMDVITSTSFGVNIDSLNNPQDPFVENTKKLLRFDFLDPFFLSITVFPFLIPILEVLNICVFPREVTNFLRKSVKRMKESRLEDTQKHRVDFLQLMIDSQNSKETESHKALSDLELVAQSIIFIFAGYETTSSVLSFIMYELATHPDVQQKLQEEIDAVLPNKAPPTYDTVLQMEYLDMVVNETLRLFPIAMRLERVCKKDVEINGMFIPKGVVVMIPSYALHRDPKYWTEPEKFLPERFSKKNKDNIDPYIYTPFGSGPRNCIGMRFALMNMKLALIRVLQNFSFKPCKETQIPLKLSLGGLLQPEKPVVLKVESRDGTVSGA
Chain of CYP2C9 (P11712 whole entry): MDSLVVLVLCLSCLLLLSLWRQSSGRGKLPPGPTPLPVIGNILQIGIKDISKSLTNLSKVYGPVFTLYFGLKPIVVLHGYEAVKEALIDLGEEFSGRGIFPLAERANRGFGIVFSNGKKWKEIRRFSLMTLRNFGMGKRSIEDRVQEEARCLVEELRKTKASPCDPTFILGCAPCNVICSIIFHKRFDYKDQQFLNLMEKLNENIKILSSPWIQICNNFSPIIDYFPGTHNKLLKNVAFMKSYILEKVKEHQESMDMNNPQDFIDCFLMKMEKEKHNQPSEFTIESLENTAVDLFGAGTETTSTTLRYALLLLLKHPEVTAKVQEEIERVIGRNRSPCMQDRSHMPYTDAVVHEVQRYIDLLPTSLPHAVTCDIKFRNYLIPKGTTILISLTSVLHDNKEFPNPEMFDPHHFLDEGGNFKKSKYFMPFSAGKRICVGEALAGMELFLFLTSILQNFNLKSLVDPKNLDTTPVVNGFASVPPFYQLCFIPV
T1 sequence (P10635 whole entry): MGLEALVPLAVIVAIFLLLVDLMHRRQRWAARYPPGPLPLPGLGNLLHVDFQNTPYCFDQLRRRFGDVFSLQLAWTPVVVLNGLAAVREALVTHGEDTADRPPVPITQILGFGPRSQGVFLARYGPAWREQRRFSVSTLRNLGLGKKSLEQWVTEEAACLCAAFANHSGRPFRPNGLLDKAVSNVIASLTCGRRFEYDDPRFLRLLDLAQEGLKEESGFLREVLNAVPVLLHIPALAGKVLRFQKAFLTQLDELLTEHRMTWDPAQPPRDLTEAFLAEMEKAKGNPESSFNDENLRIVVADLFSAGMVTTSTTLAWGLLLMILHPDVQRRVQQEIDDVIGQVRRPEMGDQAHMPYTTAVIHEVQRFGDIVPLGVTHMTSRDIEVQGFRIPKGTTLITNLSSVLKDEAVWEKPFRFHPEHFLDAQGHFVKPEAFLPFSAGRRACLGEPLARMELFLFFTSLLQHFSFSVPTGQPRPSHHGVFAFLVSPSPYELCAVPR

Regarding `COc1ccc2oc(-c3cc(OC)c(OC)cc3OC)c(O)c(=O)c2c1` [3H6-TMF, 3-hydroxy-2′,4′,5′,6-tetramethoxyflavone], the Papp at 4 h, 300 μg/mL in [1] was 17.4 ×10⁻⁶ cm/s. Besides, the “Transport Efficiency (%)” value is 25.42 ± 1.92 ^c % in the series with Caco-2 cell monolayer (1 h); 33.27 ± 2.59 ^b % with Caco-2 cell monolayer (2 h); 39.43 ± 2.50% and 39% and 39.43 ± 3.50 ^a % in the series with Caco-2 cell monolayer (4 h). The IC50 was 95.5 ± 3.21 µM at CYP2D6; 10.2 ± 2.47 µM on CYP2C19; 20.6 ± 0.98 µM at CYP1A2; 8.03 ± 3.75 µM against CYP2C9; 0.44 ± 0.12 µM at CYP3A4.

With `COc1cc(OC)c2c(=O)cc(-c3ccc(OC)c(OC)c3)oc2c1` [57-TMF, 3′,4′,5,7-tetramethoxyflavone], the Papp at 4 h, 300 μg/mL in series [1] is 14.3 ×10⁻⁶ cm/s. In addition, the “Transport Efficiency (%)” value was 22.48 ± 3.90 ^c % with Caco-2 cell monolayer (1 h); 33.03 ± 0.46 ^b % in the series on Caco-2 cell monolayer (2 h); 34.00 ± 0.01% and 34.00 ± 1.81 ^ab % in the series with Caco-2 cell monolayer (4 h). Moreover, the figures for the IC50 at CYP1A2, against CYP2C9 and at CYP3A4 were 35.6 ± 12.3 µM, 62.5 ± 2.12 µM and 3.56 ± 1.23 µM, respectively.

Consider `COc1ccc2c(=O)c(O)c(-c3cc(OC)c(OC)cc3OC)oc2c1` [3H7-TMF, 3-hydroxy-2′,4′,5′,7-tetramethoxyflavone], for which the apparent permeability (Papp) at 4 h, 300 μg/mL in series [1] was 19.5 ×10⁻⁶ cm/s. For the same compound, the “Transport Efficiency (%)” value in the series on Caco-2 cell monolayer (1 h) was 37.82 ± 0.07 ^c %; with Caco-2 cell monolayer (2 h), 41.96 ± 1.14 ^b %; in the series with Caco-2 cell monolayer (4 h), 46% and 46.29 ± 2.16 ^a %. For the same compound, the IC50 against CYP2D6 came to 2.28 ± 0.46 µM; against CYP2C19 it was 14.8 ± 3.15 µM; against CYP1A2 it was 15.5 ± 1.95 µM; against CYP2C9, 18.3 ± 8.93 µM; against CYP3A4, 0.15 ± 0.07 µM.

Regarding `COc1cc(-c2cc(=O)c3c(O)c(OC)c(OC)c(OC)c3o2)ccc1O` [8-methoxycirsilineol, 4′,5-dihydroxy-3′,6,7,8-tetramethoxy flavone], the IC50 in series [2] was 2.41 µM; in [3], 1.71 µM.

Regarding `COc1ccc(-c2cc(=O)c3ccc(OC)c(OC)c3o2)cc1OC` [78-TMF, 3′,4′,7,8-tetramethoxyflavone], in series [1], the Papp at 4 h, 300 μg/mL is 8.83 ×10⁻⁶ cm/s. The “Transport Efficiency (%)” value in the series on Caco-2 cell monolayer (1 h) was 30.49 ± 0.05 ^c** %; in the series on Caco-2 cell monolayer (2 h), 33.98 ± 0.75 ^b %; in the series with Caco-2 cell monolayer (4 h) it was 37.58 ± 0.11% and 37.58 ± 2.11 ^a %. For the same compound, the IC50 at CYP2C19 came to 1.85 ± 0.14 µM; on CYP1A2, 0.79 ± 0.12 µM; against CYP2C9, 1.49 ± 0.16 µM; on CYP3A4 it was 108 ± 6.31 µM. Also, in series [4], the IC50 at 25 min was 0.79 to 1.85 µM.
